Literature values in patent publication US6541263B2, “Determination of corticosteroids in human plasma using micromass LC/MS/MS” (Euro-Celtique, S.A. Luxembourg, priority 2001, dated 2003).

System: eosinophils
Settings: IL-5-mediated survival

SMILES: C[C@]12CCC(=O)C=C1CC[C@@H]1[C@@H]2[C@@H](O)C[C@@]2(C)[C@H]1CC[C@]2(O)C(=O)CO [hydrocortisone]
- inhibition of IL-5-mediated eosinophil survival: dose-dependent inhibition
